These results are taken from US20230114728A1 (Venatorx Pharmaceuticals, Inc., priority 2019, published 2023).

Values after ≈ are worked out from the molar mass of the structure shown.

Holding throughout (test): Broth microdilution MIC in iron-depleted CAMHB (IDM)
What all share (type): cell-based
A general note: In broth dilution the organism is exposed to a series of concentrations in liquid medium.

Assay [1] relates to P. aeruginosa CDC-0054 producing VIM-4, OXA-50, and PAO. The note with it: Pseudomonas aeruginosa, read-out: Minimum Inhibitory Concentration, P. aeruginosa CDC-0054. Summed up: (§1)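 CLSI broth microdilution in Chelex-treated cation-adjusted Mueller-Hinton broth, refortified with Ca, Mg and 10 μM ZnSO4, pH 7.3. Inoculum 2-8×10^5 CFU/mL; 37 °C for 16-20 h (Pseudomonas) or 20-24 h (Acinetobacter). MIC read visually as lowest concentration without growth.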

Assay [2] has as its system A. baumannii CDC-0036 OXA-65, and OXA-24. The note with it: Acinetobacter baumannii, read-out: Minimum Inhibitory Concentration, CDC-0036. Summed up:
as §1

In assay [3] the test system is A. baumannii CDC-0033 producing NDM-1, and OXA-94. Conditions: Acinetobacter baumannii, read-out: Minimum Inhibitory Concentration, CDC-0033. The method, boiled down: as §1
In assay [4] the test system is A. baumannii CDC-0083 producing NDM-1, PER-7, OXA-23, and OXA-69. The note with it: Acinetobacter baumannii, read-out: Minimum Inhibitory Concentration, CDC-0083. The method, boiled down: as §1
The next assay concerns A. baumannii ATCC 17978. Conditions: Acinetobacter baumannii, ATCC17978, read-out: Minimum Inhibitory Concentration, ATCC 17978. Summed up: as §1
The subject of assay [5] is P. aeruginosa (ΔmexAB-oprM). Conditions: Pseudomonas aeruginosa, read-out: Minimum Inhibitory Concentration, P. aeruginosa ΔmexAB-OprM. The method, boiled down: as §1
A further assay concerns A. baumannii ATCC 19606. The note with it: Acinetobacter baumannii, ATCC19606, read-out: Minimum Inhibitory Concentration, ATCC 19606. Summed up: as §1
The next assay concerns P. aeruginosa ATCC 27853. Conditions: Pseudomonas aeruginosa, ATCC27853, read-out: Minimum Inhibitory Concentration, P. aeruginosa ATCC 27853. The method, boiled down: as §1
Assay [6] deals with P. aeruginosa CDC-0095 producing OXA-50, and PAO. The note with it: Pseudomonas aeruginosa, read-out: Minimum Inhibitory Concentration, P. aeruginosa CDC-0095. Summed up:
as §1

A further assay has as its system P. aeruginosa ATCC 35151. Conditions: Pseudomonas aeruginosa, ATCC35151; iron-depleted MHB (IDM); hyper-permeable strain; read-out: Minimum Inhibitory Concentration, P. aeruginosa ATCC 35151. The method, boiled down:
as §1

The subject of assay [7] is P. aeruginosa CDC-0090 producing KPC-5, OXA-50, and PAO. The note with it: Pseudomonas aeruginosa, read-out: Minimum Inhibitory Concentration, P. aeruginosa CDC-0090. Summed up: as §1

Consider `CS(=O)(=O)N1CCN(C(=O)N[C@@H](C(=O)N[C@H]2Cc3ccc(F)c(C(=O)O)c3OB2O)c2cc(F)c(O)c(O)c2Cl)C1=O` (single isomer, unassigned) [Example 189], for which the MIC in [1] was 0.5 to 1 µg/mL (≈ 0.79 to 1.58 µM); in [2], 2 to 4 µg/mL (≈ 3.16 to 6.32 µM); in assay [3], 2 to 4 µg/mL (≈ 3.16 to 6.32 µM); in assay [4], 32 to 64 µg/mL (≈ 50.6 to 101 µM); in the assay on A. baumannii ATCC 17978, 0.25 µg/mL (≈ 0.395 µM); in assay [5] it was 0.25 µg/mL (≈ 0.395 µM). The MIC is 0.5 to 1 µg/mL (≈ 0.79 to 1.58 µM) with A. baumannii ATCC 19606; 0.5 to 1 µg/mL (≈ 0.79 to 1.58 µM) in the assay on P. aeruginosa ATCC 27853; 2 to 4 µg/mL (≈ 3.16 to 6.32 µM) in assay [6]; 0.25 µg/mL (≈ 0.395 µM) with P. aeruginosa ATCC 35151; 0.5 to 1 µg/mL (≈ 0.79 to 1.58 µM) in assay [7].
Take `CCN1CCN(C(=O)N[C@@H](C(=O)N[C@H]2Cc3ccc(F)c(C(=O)O)c3OB2O)c2c(Cl)cc(O)c(O)c2F)C(=O)C1=O` (single isomer, unassigned) [Example 207]: the MIC in assay [1] is 2 to 4 µg/mL (≈ 3.27 to 6.55 µM); in [2] it was 2 to 4 µg/mL (≈ 3.27 to 6.55 µM); in assay [3], 32 to 64 µg/mL (≈ 52.4 to 105 µM); in assay [4], greater than 128 µg/mL; with A. baumannii ATCC 17978, 0.5 to 1 µg/mL (≈ 0.819 to 1.64 µM); in assay [5], 2 to 4 µg/mL (≈ 3.27 to 6.55 µM). Also, the MIC in the assay on A. baumannii ATCC 19606 was 0.5 to 1 µg/mL (≈ 0.819 to 1.64 µM); in the assay with P. aeruginosa ATCC 27853 it was 2 to 4 µg/mL (≈ 3.27 to 6.55 µM); in assay [6], 8 to 16 µg/mL (≈ 13.1 to 26.2 µM); in the assay on P. aeruginosa ATCC 35151, 0.25 µg/mL (≈ 0.409 µM); in [7] it was 2 to 4 µg/mL (≈ 3.27 to 6.55 µM).
On to `O=C(NCCCN1CCN(C(=O)NC(C(=O)N[C@H]2Cc3cccc(C(=O)O)c3OB2O)c2ncc(O)cc2F)C(=O)C1=O)c1ccc(O)c(O)c1Cl` (stereo partly drawn) [Example 1, (3R)-3-(2-(4-(3-(2-chloro-3,4-dihydroxybenzamido)propyl)-2,3-dioxopiperazine-1-carboxamido)-2-(3-fluoro-5-hydroxypyridin-2-yl)acetamido)-2-hydroxy-3,4-dihydro-2H-benzo[e][1,2]oxaborinine-8-carboxylic acid], for which the MIC was 2 to 4 µg/mL (≈ 2.69 to 5.38 µM) in assay [5], 2 to 4 µg/mL (≈ 2.69 to 5.38 µM) in the assay with A. baumannii ATCC 19606, 8 to 16 µg/mL (≈ 10.8 to 21.5 µM) with P. aeruginosa ATCC 27853 and 0.5 to 1 µg/mL (≈ 0.673 to 1.35 µM) with P. aeruginosa ATCC 35151.
For `C[C@H]1CN(CCNC(=O)c2ccc(O)c(O)c2Cl)C(=O)C(=O)N1C(=O)NC(C(=O)N[C@H]1Cc2cccc(C(=O)O)c2OB1O)c1ncc(O)cc1F` (stereo partly drawn) [Example 2, (3R)-3-(2-((S)-4-(2-(2-chloro-3,4-dihydroxybenzamido)ethyl)-6-methyl-2,3-dioxopiperazine-1-carboxamido)-2-(3-fluoro-5-hydroxypyridin-2-yl)acetamido)-2-hydroxy-3,4-dihydro-2H-benzo[e][1,2]oxaborinine-8-carboxylic acid], the MIC in [1] is 2 to 4 µg/mL (≈ 2.69 to 5.38 µM); in [2], 32 to 64 µg/mL (≈ 43.1 to 86.2 µM); in assay [3], 8 to 16 µg/mL (≈ 10.8 to 21.5 µM); in [4], 8 to 16 µg/mL (≈ 10.8 to 21.5 µM); with A. baumannii ATCC 17978, 0.5 to 1 µg/mL (≈ 0.673 to 1.35 µM); in assay [5] it was 0.25 µg/mL (≈ 0.337 µM). In addition, the MIC in the assay on A. baumannii ATCC 19606 was 0.5 to 1 µg/mL (≈ 0.673 to 1.35 µM); in the assay on P. aeruginosa ATCC 27853, 2 to 4 µg/mL (≈ 2.69 to 5.38 µM); in assay [6] it was 8 to 16 µg/mL (≈ 10.8 to 21.5 µM); in the assay on P. aeruginosa ATCC 35151, 0.25 µg/mL (≈ 0.337 µM); in assay [7], 2 to 4 µg/mL (≈ 2.69 to 5.38 µM).
For the molecule `NCCN1CCN(C(=O)N[C@@H](C(=O)N[C@H]2Cc3ccc(F)c(C(=O)O)c3OB2O)c2c(F)c(F)c(O)c(O)c2Cl)C(=O)C1=O` [Example 226, (R)-3-((R)-2-(4-(2-aminoethyl)-2,3-dioxopiperazine-1-carboxamido)-2-(2-chloro-5,6-difluoro-3,4-dihydroxyphenyl)acetamido)-7-fluoro-2-hydroxy-3,4-dihydro-2H-benzo[e][1,2]oxaborinine-8-carboxylic acid], the MIC was 2 to 4 µg/mL (≈ 3.11 to 6.21 µM) in assay [1]; 8 to 16 µg/mL (≈ 12.4 to 24.9 µM) in [2]; 8 to 16 µg/mL (≈ 12.4 to 24.9 µM) in [3]; 2 to 4 µg/mL (≈ 3.11 to 6.21 µM) in assay [4]; 0.5 to 1 µg/mL (≈ 0.777 to 1.55 µM) in the assay on A. baumannii ATCC 17978; 2 to 4 µg/mL (≈ 3.11 to 6.21 µM) in assay [5]. Moreover, the MIC in the assay with A. baumannii ATCC 19606 was 0.5 to 1 µg/mL (≈ 0.777 to 1.55 µM); with P. aeruginosa ATCC 27853 it was 0.5 to 1 µg/mL (≈ 0.777 to 1.55 µM); in assay [6], 2 to 4 µg/mL (≈ 3.11 to 6.21 µM); with P. aeruginosa ATCC 35151, 0.25 µg/mL (≈ 0.388 µM).
